In patent US20250144067A1, “PERSONALIZED STARVATION THERAPY FOR CANCER” (Faeth Therapeutics, Inc., priority 2021, published 2025):

Experiments:
[1] = tested on: NCI-H292 lung cancer cells; test: FDA drug screening, complete media vs cholesterol-free media without statin (TABLE 1); type: cell-based, human; conditions: for Difference: about 0 neutral
[2] = tested on: NCI-H292 lung cancer cells; test: FDA drug screening, complete media vs cholesterol-free media with simvastatin (TABLE 2); type: cell-based, human; conditions: for Cholesterol-free media + simvastatin (0.04 μM) / Complete Media: NCI-H292 cells; for Difference: >0 enhanced anti-cancer activity, about 0 neutral, <0 antagonist
[3] = Complete minus Cholesterol-free, >0 enhanced anti-cancer activity, <0 antagonist
[4] = NCI-H292 cells, cholesterol-free media without statin
[5] = cholesterol-free media with simvastatin 0.04 μM, cell growth value in FDA drug screen
[6] = complete media, cell growth value in FDA drug screen
[7] = complete media minus cholesterol-free media + simvastatin
[8] = complete vs cholesterol-free media, greater than 0 enhanced anti-cancer activity, below 0 antagonists
[9] = FDA drug library screen, cholesterol-free media with simvastatin 0.04 μM
[10] = FDA drug library screen, complete media
[11] = complete media vs cholesterol-free media + simvastatin (0.04 μM)
[12] = drug in cholesterol-free media with simvastatin 0.04 μM
[13] = Complete minus Cholesterol-free, greater than 0 enhanced anti-cancer activity, below 0 antagonists
[14] = NCI-H292 cells in cholesterol-free media without statin
[15] = NCI-H292 cells in complete media

| SMILES | Difference [1, 3] | Cholesterol-free [1, 4] | Complete ([1]; NCI-H292 cells, complete media) | Difference [2, 7] | Cholesterol-free media + simvastatin (0.04 μM) [2, 9] | Complete Media [2, 10] | Difference [2, 11] | other results |
| --- | --- | --- | --- | --- | --- | --- | --- | --- |
| CCOC(=O)N1CCC(=C2c3ccc(Cl)cc3CCc3cccnc32)CC1 [Loratadine] | −0.30 | 1.122 | 0.8264 | 0.10 | – | – | – | Cholesterol-free media + simvastatin (0.04 μM) [2, 5]: 0.8147; Complete Media [2, 6]: 0.9097 |
| C[C@H]1Oc2cc(cnc2N)-c2c(nn(C)c2C#N)CN(C)C(=O)c2ccc(F)cc21 [Lorlatinib] | – | 1.143 | 0.8052 | 0.20 | 0.9476 | – | – | Difference [1, 8]: −0.34 |
| CN1C(C(=O)Nc2ccccn2)=C(O)c2sc(Cl)cc2S1(=O)=O [Lornoxicam] | – | 1.174 | 0.811 | – | 1.072 | 0.9888 | −0.08 | Difference [1, 8]: −0.36 |
| CCCCc1nc(Cl)c(CO)n1Cc1ccc(-c2ccccc2-c2nn[nH]n2)cc1 [Losartan (potassium)] | −0.24 | 1.05 | 0.8102 | – | – | – | −0.21 | Cholesterol-free media + simvastatin (0.04 μM) [2, 12]: 1.17; Complete Media ([2]; drug in complete media): 0.9634 |
| CCCCc1nc(Cl)c(CO)n1Cc1ccc(-c2ccccc2-c2nn[nH]n2)cc1 [Losartan] | −0.28 | 1.549 | 1.271 | – | – | – | −0.50 | Cholesterol-free media + simvastatin (0.04 μM) ([2]; FDA library drug in cholesterol-free media with simvastatin 0.04 μM): 1.37; Complete Media ([2]; FDA library drug in complete media): 0.8741 |
| CCOC(=O)O[C@]1(C(=O)OCCl)CC[C@H]2[C@@H]3CCC4=CC(=O)C=C[C@]4(C)[C@H]3[C@@H](O)C[C@@]21C [Loteprednol Etabonate] | – | – | – | 0.27 | 0.9128 | 1.184 | – | Cholesterol-free ([1]; NCI-H292 cells, cholesterol-free media without statin, FDA drug library screen): 0.5384; Complete ([1]; NCI-H292 cells, complete media, FDA drug library screen): 0.8969; Difference ([1]; complete vs cholesterol-free media, >0 enhanced anti-cancer activity, <0 antagonist): 0.36 |
| CC[C@H](C)C(=O)O[C@H]1C[C@@H](C)C=C2C=C[C@H](C)[C@H](CC[C@@H]3C[C@@H](O)CC(=O)O3)[C@H]21 [Lovastatin] | – | – | – | 0.28 | 0.5184 | 0.7992 | – | Difference ([1]; Complete minus Cholesterol-free, greater than 0 enhanced anti-cancer activity, below 0 antagonist): −0.11; Cholesterol-free ([1]; NCI-H292 cells, FDA drug library screen, cholesterol-free media without statin): 0.7089; Complete ([1]; NCI-H292 cells, FDA drug library screen, complete media): 0.603 |
| CN1CCN(C2=Nc3ccccc3Oc3ccc(Cl)cc32)CC1 [Loxapine] | −0.26 | 1.313 | 1.056 | 0.09 | – | – | – | Cholesterol-free media + simvastatin (0.04 μM) [2, 5]: 0.8194; Complete Media [2, 6]: 0.9125 |
| CC(C(=O)O)c1ccc(CC2CCCC2=O)cc1 (centres unmarked) [Loxoprofen (sodium)] | −0.22 | 0.9775 | 0.7554 | 0.53 | 1.087 | 1.62 | – | – |
| CC(C(=O)O)c1ccc(CC2CCCC2=O)cc1 (centres unmarked) [Loxoprofen] | – | – | – | 0.12 | – | – | – | Difference [1, 13]: −0.88; Cholesterol-free [1, 14]: 1.914; Complete [1, 15]: 1.039; Cholesterol-free media + simvastatin (0.04 μM) [2, 5]: 0.9936; Complete Media [2, 6]: 1.115 |
| CCCCC(F)(F)[C@@]1(O)CC[C@H]2[C@@H](CC(=O)[C@@H]2CCCCCCC(=O)O)O1 [Lubiprostone] | −0.28 | 1.064 | 0.7833 | 0.21 | 1.061 | 1.267 | – | – |
| N#C/C(=C1/SC[C@@H](c2ccc(Cl)cc2Cl)S1)n1ccnc1 [Luliconazole] | – | – | – | 0.49 | 0.3531 | 0.8464 | – | Difference [1, 13]: −0.58; Cholesterol-free [1, 14]: 1.532; Complete [1, 15]: 0.9562 |
| Cc1ccc(NC(=O)C2(c3ccc4c(c3)OC(F)(F)O4)CC2)nc1-c1cccc(C(=O)O)c1 [Lumacaftor] | −0.19 | 1.044 | 0.854 | – | – | – | −0.20 | Cholesterol-free media + simvastatin (0.04 μM) [2, 12]: 1.744; Complete Media ([2]; drug in complete media): 1.539 |
